Source: patent US12594258B2, “Inhibitors of MHC-I Nef downmodulation for treating HIV” (priority 2019, dated 2026)
“Also recorded” adds a separate entry of the source. Where two headings read alike, the source gives them in different places.

How the values were obtained:
[1] = test system: HIV Nef
[2] = test system: HIV Nef; remark: listed apart in the source
[3] = test system: lysosomal pH in human monocyte-derive macrophages (MDMs); assay: Lysosensor Yellow/Blue dextran analysis of lysosomal pH in MDMs; format: cell-based
Description: To measure the lysosomal pH in human monocyte-derive macrophages (MDMs), MDMs adhered to 24-well plates were exposed to 500 μg/mL Lysosensor Yellow/Blue dextran, 10,000 MW (ThermoFisher, L22460) in R10 for 24 hours. MDMs were then exposed to plecomacrolides for 1 hour and harvested with 0.05% Trypsin-EDTA (Gibco 25300054). Cells were washed twice in FACS buffer, and analyzed on a MoFlo Astrios flow cytometer, with blue signal excited from a 354 nm laser and yellow signal excited from a 405 nm laser. A standard curve was generated by resuspending MDMs in equilibration buffers of known pH as previously described. The ratio of blue:yellow fluorescence intensity was calculated for each cell, the median blue:yellow ratio for the cell population for each condition was obtained, and the lysosomal pH in MDMs was calculated for each condition using the standard curve.
Lysosensor Yellow/Blue Dextran Analysis of Lysosomal pH. To measure the lysosomal pH in human MDMs, MDMs adhered to 24-well plates were exposed to 500 μg/mL Lysosensor Yellow/Blue dextran, 10,000 molecular weight (MVV) in R10 for 24 h. MDMs were then exposed to plecomacrolides for 1 h and harvested with 0.05% Trypsin-(ethylenedinitrilo)tetraacetic acid (EDTA). Cells were washed twice in FACS buffer, and analyzed on a flow cytometer, with blue signal excited from a 354-nm laser and yellow signal excited from a 405-nm laser. A standard curve was generated by resuspending MDMs in equilibration buffers of known pH. The ratio of blue:yellow fluorescence intensity was calculated for each cell, the median blue:yellow ratio for the cell population for each condition was obtained, and the lysosomal pH in MDMs was calculated for each condition using the standard curve.

[4] = test system: primary CD4+ T cells; assay: MTT and flow cytometric viability assays in primary CD4+ T cells; format: cell-based, human; conditions: Nef activity 24 hours, viability 72 hours
Description: CD4^+ T cells were plated at a density of 1×10^5 cells in 200 μL R10-50 in flat-bottom 96-well plates 4 days post-stimulation with PHA. Cells were exposed to titrations of plecomacrolides or solvent controls for 72 hours in culture, at which point viability was assessed relative to solvent by MTT assay in experimental duplicates. Equal volumes of cell culture medium containing CD4^+ T cells were pelleted in 96-well round-bottom plates and incubated in 4.5 mg/mL MTT (Fisher, M6494) in R10 with no Phenol Red at 37° C. until the purple formazan signal was clearly visible. The absorbance of cell pellets resuspended in DMSO was measured at 595 nm on a Molecular Devices Emax precision microplate reader and compared a standard curve of known viable cell numbers to ensure the experimental samples fell within the linear range of the assay.

Row | SMILES | reduction of Nef-dependent HLA-A2 downmodulation ([1]; primary T cells transduced with ΔGPE) [fold] | EC50 ([1]; read-out: EC50 for Nef inhibition, HIV-infected primary CD4+ T cells, HLA-A2) [nM] | reduction of Nef-dependent HLA-A2 downmodulation [2] | neutralization of lysosomal pH [3] | EC50 ([3]; 1 hour, read-out: EC50 for lysosome neutralization) [nM] | difference between the 50% effective and toxic concentrations (EC50 and TC50) [4] [fold] | level of MHC-I restoration compared to CMA [1] | restoration of MHC-I ([1]; 24 hours post-treatment) | restoration of MHC-I to the surface of Nef-expressing cells ([1]; 48 hours of exposure) | concentration required for restoration of MHC-I compared to CMA ([1]; higher than CMA)
1 | CO/C1=C\C(C)=C\[C@@H](C)[C@@H](O)[C@@H](C)C/C(C)=C/C=C/[C@H](OC)[C@@H]([C@@H](C)[C@@H](O)[C@H](C)[C@@]2(O)C[C@@H](O)[C@H](C)[C@@H](C(C)C)O2)OC1=O [Baf A1] | […] | […] | over ten-fold | completely neutralize lysosomal pH | […] | […] |  |  |  | 
2 | CC[C@H](C)C(=O)O[C@H]1C[C@@H](C)C=C2C=C[C@H](C)[C@H](CC[C@@H]3C[C@@H](O)CC(=O)O3)[C@H]21 [lovastatin, Lovastatin] |  |  |  |  |  |  | a fraction of the levels achieved by CMA; also recorded: did not achieve comparable levels | little restoration of MHC-I | partially restore MHC-I | 2,000 fold
